Results reported in PubChem BioAssay AID1982 (Sanford-Burnham Center for Chemical Genomics, 2009).
Activity calls are given as the source filed them. The rule behind the calls is not given here.

Tests used:
Assay in all cases: kinase panel binding selectivity, selectivity assay, biochemical, KINOMEscan (AID 1982)
[1] = molecular target: Cyclin-dependent kinase 8 (Homo sapiens) (UniProt P49336); details: KINOMEscan 353-kinase binding panel, qPCR; CDK8; at 10 µM; stronger effect = lower value
[2] = molecular target: Proto-oncogene tyrosine-protein kinase ROS (Homo sapiens) (UniProt P08922); details: KINOMEscan 353-kinase binding panel, qPCR; ROS1; at 10 µM; stronger effect = lower value
Proto-oncogene tyrosine-protein kinase ROS (Homo sapiens), sequence (P08922 whole entry, looked up): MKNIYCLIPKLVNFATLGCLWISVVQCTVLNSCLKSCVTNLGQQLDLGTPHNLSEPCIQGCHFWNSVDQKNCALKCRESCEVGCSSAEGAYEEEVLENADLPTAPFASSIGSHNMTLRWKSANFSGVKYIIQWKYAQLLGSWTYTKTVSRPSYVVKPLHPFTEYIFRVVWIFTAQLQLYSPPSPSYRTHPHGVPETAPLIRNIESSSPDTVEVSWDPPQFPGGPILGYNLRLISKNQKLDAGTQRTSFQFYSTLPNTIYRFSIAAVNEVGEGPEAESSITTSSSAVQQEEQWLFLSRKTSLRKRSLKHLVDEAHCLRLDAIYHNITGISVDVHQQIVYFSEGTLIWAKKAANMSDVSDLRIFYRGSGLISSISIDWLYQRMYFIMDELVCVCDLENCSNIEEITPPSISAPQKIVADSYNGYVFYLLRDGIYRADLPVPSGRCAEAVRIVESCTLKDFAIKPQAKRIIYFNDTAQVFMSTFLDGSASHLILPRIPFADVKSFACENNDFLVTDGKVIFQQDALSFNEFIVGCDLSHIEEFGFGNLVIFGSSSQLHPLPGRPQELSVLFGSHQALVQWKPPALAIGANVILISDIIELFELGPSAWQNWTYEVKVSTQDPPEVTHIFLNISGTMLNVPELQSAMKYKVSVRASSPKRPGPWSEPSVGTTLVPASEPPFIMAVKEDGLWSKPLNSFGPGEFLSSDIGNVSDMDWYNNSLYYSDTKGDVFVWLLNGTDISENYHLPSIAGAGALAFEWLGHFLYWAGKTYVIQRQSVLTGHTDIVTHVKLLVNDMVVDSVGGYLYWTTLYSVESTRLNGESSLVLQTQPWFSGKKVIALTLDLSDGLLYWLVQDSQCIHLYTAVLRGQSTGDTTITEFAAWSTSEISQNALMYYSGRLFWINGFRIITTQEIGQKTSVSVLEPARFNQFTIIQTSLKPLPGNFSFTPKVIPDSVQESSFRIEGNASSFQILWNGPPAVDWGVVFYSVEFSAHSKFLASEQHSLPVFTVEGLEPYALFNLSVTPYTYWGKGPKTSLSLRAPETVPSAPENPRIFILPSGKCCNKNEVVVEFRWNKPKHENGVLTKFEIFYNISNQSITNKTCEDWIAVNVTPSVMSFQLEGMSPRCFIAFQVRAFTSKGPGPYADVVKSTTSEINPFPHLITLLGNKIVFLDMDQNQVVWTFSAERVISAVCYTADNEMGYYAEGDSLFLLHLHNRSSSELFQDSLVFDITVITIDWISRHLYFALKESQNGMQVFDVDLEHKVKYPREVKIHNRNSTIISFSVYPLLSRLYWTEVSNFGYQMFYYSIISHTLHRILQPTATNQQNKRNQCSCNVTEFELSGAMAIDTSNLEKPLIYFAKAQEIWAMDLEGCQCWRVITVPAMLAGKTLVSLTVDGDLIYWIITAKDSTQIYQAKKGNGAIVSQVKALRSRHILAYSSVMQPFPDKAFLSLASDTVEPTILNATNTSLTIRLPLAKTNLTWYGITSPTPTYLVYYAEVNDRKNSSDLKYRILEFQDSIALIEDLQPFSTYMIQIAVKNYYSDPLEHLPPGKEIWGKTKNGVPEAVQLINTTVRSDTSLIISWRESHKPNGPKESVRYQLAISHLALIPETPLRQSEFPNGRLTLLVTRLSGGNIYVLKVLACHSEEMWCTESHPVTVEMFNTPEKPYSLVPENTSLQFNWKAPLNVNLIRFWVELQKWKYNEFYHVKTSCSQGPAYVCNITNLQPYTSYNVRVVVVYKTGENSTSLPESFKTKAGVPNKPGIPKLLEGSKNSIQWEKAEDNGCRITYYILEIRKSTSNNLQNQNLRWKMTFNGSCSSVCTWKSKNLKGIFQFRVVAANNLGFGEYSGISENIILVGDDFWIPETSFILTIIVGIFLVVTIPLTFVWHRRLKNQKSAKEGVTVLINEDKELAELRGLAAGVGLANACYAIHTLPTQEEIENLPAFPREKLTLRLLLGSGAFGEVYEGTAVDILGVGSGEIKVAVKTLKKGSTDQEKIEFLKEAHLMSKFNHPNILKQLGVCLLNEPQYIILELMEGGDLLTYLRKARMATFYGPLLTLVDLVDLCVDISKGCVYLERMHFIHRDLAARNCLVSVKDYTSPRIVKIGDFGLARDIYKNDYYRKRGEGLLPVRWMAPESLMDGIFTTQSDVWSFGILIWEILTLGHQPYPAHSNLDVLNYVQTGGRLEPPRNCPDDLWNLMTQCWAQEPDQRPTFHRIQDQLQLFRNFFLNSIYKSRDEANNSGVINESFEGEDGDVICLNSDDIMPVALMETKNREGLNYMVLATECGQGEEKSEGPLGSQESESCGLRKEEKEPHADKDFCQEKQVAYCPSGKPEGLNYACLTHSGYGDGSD

[3] = molecular target: Serine/threonine-protein kinase PLK4 (Homo sapiens) (UniProt O00444); details: KINOMEscan 353-kinase binding panel, qPCR, at 10 µM, stronger effect = lower value
CDC2L1 = details: KINOMEscan 353-kinase binding panel, qPCR, at 10 µM, stronger effect = lower value
ACVRL1 = details: KINOMEscan 353-kinase binding panel, qPCR, at 10 µM, stronger effect = lower value
[4] = molecular target: MAP kinase-activated protein kinase 5 (Homo sapiens) (UniProt Q8IW41); details: KINOMEscan 353-kinase binding panel, qPCR; MAPKAPK5; at 10 µM; stronger effect = lower value
LKB1 = details: KINOMEscan 353-kinase binding panel, qPCR, at 10 µM, stronger effect = lower value
[5] = molecular target: High affinity nerve growth factor receptor (Homo sapiens) (UniProt P04629); details: KINOMEscan 353-kinase binding panel, qPCR; TRKA; at 10 µM; stronger effect = lower value
TGFBR2 = details: KINOMEscan 353-kinase binding panel, qPCR, at 10 µM, stronger effect = lower value
[6] = molecular target: Protein-tyrosine kinase 6 (Homo sapiens) (UniProt Q13882); details: KINOMEscan 353-kinase binding panel, qPCR; PTK6; at 10 µM; stronger effect = lower value
[7] = molecular target: Mitogen-activated protein kinase 14 (Homo sapiens) (UniProt Q16539); details: KINOMEscan 353-kinase binding panel, qPCR; p38-alpha; at 10 µM; stronger effect = lower value
[8] = molecular target: Tyrosine-protein kinase ITK/TSK (Homo sapiens) (UniProt Q08881); details: KINOMEscan 353-kinase binding panel, qPCR, at 10 µM, stronger effect = lower value
[9] = molecular target: Ephrin type-A receptor 2 (Homo sapiens) (UniProt P29317); details: KINOMEscan 353-kinase binding panel, qPCR; EPHA2; at 10 µM; stronger effect = lower value
[10] = molecular target: Tyrosine-protein kinase HCK (Homo sapiens) (UniProt P08631); details: KINOMEscan 353-kinase binding panel, qPCR, at 10 µM, stronger effect = lower value
[11] = molecular target: Proto-oncogene tyrosine-protein kinase receptor Ret (Homo sapiens) (UniProt P07949); details: KINOMEscan 353-kinase binding panel, qPCR, at 10 µM, stronger effect = lower value
Proto-oncogene tyrosine-protein kinase receptor Ret (Homo sapiens), sequence (P07949 whole entry, looked up): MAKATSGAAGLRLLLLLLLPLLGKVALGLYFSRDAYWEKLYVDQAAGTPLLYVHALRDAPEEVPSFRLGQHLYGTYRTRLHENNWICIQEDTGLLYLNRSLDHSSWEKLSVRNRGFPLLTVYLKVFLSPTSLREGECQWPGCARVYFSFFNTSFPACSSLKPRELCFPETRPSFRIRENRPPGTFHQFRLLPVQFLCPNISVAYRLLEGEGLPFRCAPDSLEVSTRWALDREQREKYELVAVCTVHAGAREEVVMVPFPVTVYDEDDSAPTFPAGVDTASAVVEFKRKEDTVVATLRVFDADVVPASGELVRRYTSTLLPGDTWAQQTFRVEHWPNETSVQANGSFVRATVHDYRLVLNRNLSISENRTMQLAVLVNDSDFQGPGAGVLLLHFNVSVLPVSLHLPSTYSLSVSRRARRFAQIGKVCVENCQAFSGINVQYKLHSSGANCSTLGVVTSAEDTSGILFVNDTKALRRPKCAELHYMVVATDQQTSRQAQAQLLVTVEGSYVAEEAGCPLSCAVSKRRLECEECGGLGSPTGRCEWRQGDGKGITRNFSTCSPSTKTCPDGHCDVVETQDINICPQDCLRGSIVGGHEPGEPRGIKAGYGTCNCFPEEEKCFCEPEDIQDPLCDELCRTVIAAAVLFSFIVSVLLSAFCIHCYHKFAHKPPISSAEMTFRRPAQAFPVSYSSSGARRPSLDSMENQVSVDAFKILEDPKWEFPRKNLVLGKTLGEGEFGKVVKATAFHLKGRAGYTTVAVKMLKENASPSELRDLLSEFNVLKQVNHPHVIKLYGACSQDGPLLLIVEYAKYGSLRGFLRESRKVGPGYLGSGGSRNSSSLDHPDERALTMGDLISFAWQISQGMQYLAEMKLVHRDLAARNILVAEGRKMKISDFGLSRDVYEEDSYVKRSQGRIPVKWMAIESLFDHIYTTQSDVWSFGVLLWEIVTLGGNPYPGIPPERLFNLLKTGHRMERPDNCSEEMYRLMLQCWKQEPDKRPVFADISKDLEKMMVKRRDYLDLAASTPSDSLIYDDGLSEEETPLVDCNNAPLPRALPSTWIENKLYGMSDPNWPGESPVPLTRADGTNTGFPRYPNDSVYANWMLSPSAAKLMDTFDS

[12] = molecular target: Calcium/calmodulin-dependent protein kinase kinase 2 (Homo sapiens) (UniProt Q96RR4); details: KINOMEscan 353-kinase binding panel, qPCR; CAMKK2; at 10 µM; stronger effect = lower value
PIK3CB = details: KINOMEscan 353-kinase binding panel, qPCR, at 10 µM, stronger effect = lower value
RPS6KA1(Kin.Dom.2) = details: KINOMEscan 353-kinase binding panel, qPCR, at 10 µM, stronger effect = lower value
TLK2 = details: KINOMEscan 353-kinase binding panel, qPCR, at 10 µM, stronger effect = lower value
[13] = molecular target: Receptor tyrosine-protein kinase erbB-4 (Homo sapiens) (UniProt Q15303); details: KINOMEscan 353-kinase binding panel, qPCR; ERBB4; at 10 µM; stronger effect = lower value
[14] = molecular target: Proto-oncogene tyrosine-protein kinase Src (Homo sapiens) (UniProt P12931); details: KINOMEscan 353-kinase binding panel, qPCR, at 10 µM, stronger effect = lower value
[15] = molecular target: Ribosomal protein S6 kinase alpha-3 (Homo sapiens) (UniProt P51812); details: KINOMEscan 353-kinase binding panel, qPCR; RPS6KA3(Kin.Dom.1); at 10 µM; stronger effect = lower value
EPHB4 = details: KINOMEscan 353-kinase binding panel, qPCR, at 10 µM, stronger effect = lower value
[16] = molecular target: Tyrosine-protein kinase Fyn (Homo sapiens) (UniProt P06241); details: KINOMEscan 353-kinase binding panel, qPCR, at 10 µM, stronger effect = lower value
[17] = molecular target: Macrophage-stimulating protein receptor (Homo sapiens) (UniProt Q04912); details: KINOMEscan 353-kinase binding panel, qPCR; MST1R; at 10 µM; stronger effect = lower value
ULK3 = details: KINOMEscan 353-kinase binding panel, qPCR, at 10 µM, stronger effect = lower value
MST3 = details: KINOMEscan 353-kinase binding panel, qPCR, at 10 µM, stronger effect = lower value
TNIK = details: KINOMEscan 353-kinase binding panel, qPCR, at 10 µM, stronger effect = lower value
PIP5K1A = details: KINOMEscan 353-kinase binding panel, qPCR, at 10 µM, stronger effect = lower value
[18] = molecular target: Non-receptor tyrosine-protein kinase TYK2 (Homo sapiens) (UniProt P29597); details: KINOMEscan 353-kinase binding panel, qPCR, at 10 µM, stronger effect = lower value
Non-receptor tyrosine-protein kinase TYK2 (Homo sapiens), sequence (P29597 whole entry, looked up): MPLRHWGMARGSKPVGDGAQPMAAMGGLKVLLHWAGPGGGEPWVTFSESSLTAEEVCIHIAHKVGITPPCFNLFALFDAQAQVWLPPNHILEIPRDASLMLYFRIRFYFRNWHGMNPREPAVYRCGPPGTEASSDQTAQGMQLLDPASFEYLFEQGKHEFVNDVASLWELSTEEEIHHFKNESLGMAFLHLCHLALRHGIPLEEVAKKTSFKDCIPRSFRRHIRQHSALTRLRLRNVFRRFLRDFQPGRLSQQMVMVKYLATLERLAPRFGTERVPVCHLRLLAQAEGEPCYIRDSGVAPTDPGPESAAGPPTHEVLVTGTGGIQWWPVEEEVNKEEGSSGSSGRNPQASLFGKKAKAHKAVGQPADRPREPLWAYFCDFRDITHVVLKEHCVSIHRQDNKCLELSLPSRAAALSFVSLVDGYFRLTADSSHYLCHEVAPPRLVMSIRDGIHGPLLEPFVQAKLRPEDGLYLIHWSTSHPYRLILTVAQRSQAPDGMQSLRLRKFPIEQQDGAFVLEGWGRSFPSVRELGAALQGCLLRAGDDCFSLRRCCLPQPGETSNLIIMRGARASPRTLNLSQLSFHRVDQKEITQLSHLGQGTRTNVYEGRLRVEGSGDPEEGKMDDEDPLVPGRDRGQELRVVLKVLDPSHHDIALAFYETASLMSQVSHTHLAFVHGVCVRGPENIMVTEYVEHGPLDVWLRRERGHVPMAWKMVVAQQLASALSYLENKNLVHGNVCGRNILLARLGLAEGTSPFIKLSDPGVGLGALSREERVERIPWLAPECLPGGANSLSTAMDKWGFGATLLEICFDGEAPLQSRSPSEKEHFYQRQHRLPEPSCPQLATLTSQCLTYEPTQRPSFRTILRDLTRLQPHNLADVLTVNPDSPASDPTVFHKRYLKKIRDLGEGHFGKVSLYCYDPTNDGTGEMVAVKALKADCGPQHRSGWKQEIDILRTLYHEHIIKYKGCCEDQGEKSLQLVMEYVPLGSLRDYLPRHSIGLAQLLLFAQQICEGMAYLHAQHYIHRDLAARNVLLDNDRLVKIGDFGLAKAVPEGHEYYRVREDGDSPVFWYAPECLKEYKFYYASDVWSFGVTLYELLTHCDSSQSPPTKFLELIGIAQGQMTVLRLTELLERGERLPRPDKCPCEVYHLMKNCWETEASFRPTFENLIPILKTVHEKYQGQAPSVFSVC

STK36 = details: KINOMEscan 353-kinase binding panel, qPCR, at 10 µM, stronger effect = lower value
TLK1 = details: KINOMEscan 353-kinase binding panel, qPCR, at 10 µM, stronger effect = lower value
[19] = molecular target: Phosphatidylinositol 5-phosphate 4-kinase type-2 beta (Homo sapiens) (UniProt P78356); details: KINOMEscan 353-kinase binding panel, qPCR; PIP5K2B; at 10 µM; stronger effect = lower value

Cyclin-dependent kinase 8 (Homo sapiens), sequence (P49336 whole entry, looked up): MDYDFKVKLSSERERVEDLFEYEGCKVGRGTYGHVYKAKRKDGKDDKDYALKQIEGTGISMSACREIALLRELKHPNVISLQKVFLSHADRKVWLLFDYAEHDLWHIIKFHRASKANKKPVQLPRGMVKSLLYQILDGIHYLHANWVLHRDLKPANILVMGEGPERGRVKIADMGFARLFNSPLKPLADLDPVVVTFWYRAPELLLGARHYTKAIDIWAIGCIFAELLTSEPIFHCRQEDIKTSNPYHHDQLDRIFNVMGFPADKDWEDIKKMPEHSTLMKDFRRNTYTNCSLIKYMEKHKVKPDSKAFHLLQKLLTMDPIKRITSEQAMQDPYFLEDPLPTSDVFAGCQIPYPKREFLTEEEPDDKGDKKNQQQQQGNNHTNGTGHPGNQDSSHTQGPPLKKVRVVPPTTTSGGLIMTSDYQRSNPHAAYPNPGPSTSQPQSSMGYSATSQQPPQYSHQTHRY

With `Cc1cc2nc(NCCCO)n(CC(=O)c3cc(C(C)(C)C)c(O)c(C(C)(C)C)c3)c2cc1C` the percent of control binding [1] was 93% (inactive), the percent of control binding [2] was 100% (inactive) and the percent of control binding [3] was 91% (inactive). For the same molecule, the percent of control binding (CDC2L1) was 81% (inactive), the percent of control binding (ACVRL1) was 100% (inactive) and the percent of control binding [4] was 100% (inactive). The percent of control binding (LKB1) was 100% (inactive), the percent of control binding [5] was 100% (inactive) and the percent of control binding (TGFBR2) was 100% (inactive). For the same molecule, the percent of control binding [6] was 100% (inactive), the percent of control binding [7] was 96% (inactive) and the percent of control binding [8] was 100% (inactive). The percent of control binding [9] was 100% (inactive), the percent of control binding [10] was 93% (inactive) and the percent of control binding [11] was 97% (inactive). The percent of control binding ([11]; RET(M918T)) was 100% (inactive), the percent of control binding ([11]; RET(V804L)) was 100% (inactive) and the percent of control binding ([11]; RET(V804M)) was 99% (inactive). For the same molecule, the percent of control binding [12] was 100% (inactive), the percent of control binding (PIK3CB) was 79% (inactive) and the percent of control binding (RPS6KA1(Kin.Dom.2)) was 93% (inactive). For the same molecule, the percent of control binding (TLK2) was 100% (inactive), the percent of control binding [13] was 100% (inactive) and the percent of control binding [14] was 100% (inactive). For the same molecule, the percent of control binding [15] was 92% (inactive), the percent of control binding (EPHB4) was 98% (inactive) and the percent of control binding [16] was 82% (inactive). The percent of control binding [17] was 100% (inactive), the percent of control binding (ULK3) was 100% (inactive) and the percent of control binding (MST3) was 100% (inactive). For the same molecule, the percent of control binding (TNIK) was 100% (inactive), the percent of control binding (PIP5K1A) was 77% (inactive) and the percent of control binding ([18]; TYK2 Kin.Dom.1) was 84% (inactive). For the same molecule, the percent of control binding ([18]; TYK2 Kin.Dom.2) was 98% (inactive), the percent of control binding (STK36) was 100% (inactive) and the percent of control binding (TLK1) was 30%. For the same molecule, the percent of control binding [19] was 99% (inactive).
